{
  "source": "patent US9132188B2",
  "about": "“Chemically Programmed Vaccination” (The Scripps Research Institute, priority 2009, dated 2015)",
  "tested_on": "CT26 tumors",
  "assay": "Syngeneic colon cancer model, CT26 tumors in JW-KLH-immunized BALB/C mice",
  "assay_type": "in vivo",
  "conditions": "200 μL i.p. days 2-17; compared with PBS",
  "protocol": "FIG. 5 illustrates inhibition of tumor growth in syngenic mice mediated by adaptor-targeted antibodies. […] Mice (six per group) were treated between days 2 and 17 with 200 μL i.p. injections of PBS alone, 60 μg/mL SCS-873 in PBS, or 27.5 μg/mL SCS-397 in PBS. Mean tumor volumes±SD were determined at 3-day intervals from 12 to 30 days post-grafting. […] Mice (six per group) were treated between days 2 and 17 with 200 μL i.p. injections of PBS alone, 77 μg/mL cRGD-dk in PBS, or 42.5 μg/mL cRGD in PBS. Mean tumor volumes±SD were determined at 3-day intervals from 12 to 30 days post-grafting. […] Mean tumor volumes±SD were determined at 3-day intervals from 12 to 24 days post-grafting. […] Mean tumor volumes±SD were determined at 3-day intervals from 12 to 24 days post-grafting.\nOn day 65, JW-KLH-immunized BALB/C mice were sorted (6 groups with 6 animals each) to form matched anti-JW titer groups and were inoculated s.c. into right flanks with 0.1 mL (2×10^5 cells/mouse) of CT26 cell suspension in PBS (day 0 for tumor model). […] Tumor volumes of treated animals were measured over the skin in two dimensions using a slide caliper every third day starting on day 12, and the tumor volume was calculated according to the following formula, ½(width)^2×length. Toxicity was monitored by determining the body weight of mice once a week. […]",
  "data": [
    {"substance": "cyclo(Arg-Gly-Asp-D-Phe-Lys) [cRGD]", "values": [
      {"measurement": "growth of CT26 tumors (in words)", "result": "no more effective than treatment with PBS"}
    ]}
  ]
}
